{"source": "ChEMBL document CHEMBL1144190", "about": "“Structure-activity relationship study of a novel necroptosis inhibitor, necrostatin-7” (Bioorg Med Chem Lett, 2008)", "note": "Activity calls are given as the source filed them. The calls are words filed in the database; no cut-off is given here."}
{"target": "T1, Receptor-interacting serine/threonine-protein kinase 1 (Homo sapiens) (UniProt Q13546)", "T1 sequence (whole entry)": "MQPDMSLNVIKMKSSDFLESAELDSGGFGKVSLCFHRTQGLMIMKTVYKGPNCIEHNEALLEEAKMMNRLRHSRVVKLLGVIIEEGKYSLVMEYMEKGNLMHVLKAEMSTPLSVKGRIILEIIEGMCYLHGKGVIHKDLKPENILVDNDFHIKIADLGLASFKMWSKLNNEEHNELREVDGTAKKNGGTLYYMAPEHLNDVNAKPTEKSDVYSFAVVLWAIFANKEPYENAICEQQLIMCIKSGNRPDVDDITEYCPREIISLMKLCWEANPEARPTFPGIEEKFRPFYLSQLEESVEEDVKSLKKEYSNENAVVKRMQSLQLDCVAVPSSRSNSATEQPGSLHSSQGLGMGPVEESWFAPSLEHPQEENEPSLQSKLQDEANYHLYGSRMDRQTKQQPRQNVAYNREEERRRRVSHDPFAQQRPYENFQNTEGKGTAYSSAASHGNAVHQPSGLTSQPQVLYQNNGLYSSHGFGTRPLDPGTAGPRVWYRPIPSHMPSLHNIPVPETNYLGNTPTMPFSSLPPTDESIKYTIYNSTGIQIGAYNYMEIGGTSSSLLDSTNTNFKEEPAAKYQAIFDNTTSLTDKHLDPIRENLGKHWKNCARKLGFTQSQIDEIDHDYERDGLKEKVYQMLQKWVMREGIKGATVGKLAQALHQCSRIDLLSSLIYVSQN", "test": "Inhibition of GST-tagged human recombinant RIP1 kinase expressed in Sf9 cells"}
{"smiles": "N=C1S/C(=C\\c2c[nH]nc2-c2ccc(S(=O)(=O)c3ccccc3)cc2)C(=O)N1c1nccs1", "Activity": "inactive"}
{"system": "Jurkat", "test": "Inhibition of TNF-alpha-induced necroptosis in FADD-deficient human Jurkat cells", "assay_type": "functional, cell-based", "units": {"EC50": "µM"}}
{"smiles": "Cc1ccc(-c2ccc(-c3n[nH]cc3/C=C3\\SC(=N)N(c4nccs4)C3=O)cc2)cc1", "EC50": 4.38}
{"smiles": "N=C1S/C(=C\\c2c[nH]nc2-c2ccccc2F)C(=O)N1c1nncs1", "Activity": "inactive"}
{"smiles": "N=C1S/C(=C\\c2c[nH]nc2-c2ccccc2F)C(=O)N1c1nccs1", "Activity": "inactive"}
{"smiles": "N=C1S/C(=C\\c2c[nH]nc2-c2ccc(N3CCOCC3)cc2)C(=O)N1c1nccs1", "EC50": 2.93}
{"smiles": "Cc1csc(N2C(=N)S/C(=C\\c3c[nH]nc3-c3ccc(F)cc3)C2=O)n1", "EC50": 5.25}
{"smiles": "N=C1S/C(=C\\c2c[nH]nc2-c2ccc(N3CCCC3)cc2)C(=O)N1c1nccs1", "EC50": 9.53}
{"smiles": "Cc1ccc(-c2n[nH]cc2/C=C2\\SC(=N)N(c3nccs3)C2=O)cc1", "EC50": 7.77}
{"smiles": "N=C1S/C(=C\\c2c[nH]nc2-c2ccc(Cl)cc2)C(=O)N1c1nccs1", "EC50": 15.6}
{"smiles": "N=C1S/C(=C\\c2c[nH]nc2-c2ccccc2)C(=O)N1c1nncs1", "Activity": "inactive"}
{"smiles": "N=C1S/C(=C\\c2c[nH]nc2-c2ccc3c(c2)OCO3)C(=O)N1c1nccs1", "EC50": 34.8}
{"smiles": "N=C1S/C(=C\\c2conc2-c2ccc(F)cc2)C(=O)N1c1nccs1", "Activity": "inactive"}
{"smiles": "N=C1S/C(=C\\c2c[nH]nc2-c2ccc(N3CCCCC3)cc2)C(=O)N1c1nccs1", "EC50": 6.36}
{"smiles": "N=C1S/C(=C\\c2conc2-c2ccc([N+](=O)[O-])cc2)C(=O)N1c1nccs1", "Activity": "inactive"}
{"smiles": "N=C1S/C(=C\\c2c[nH]nc2-c2ccccc2)C(=O)N1c1nccs1", "EC50": 40.6}
{"smiles": "N=C1S/C(=C\\c2c[nH]nc2-c2ccc(F)c(F)c2)C(=O)N1c1nccs1", "EC50": 6.32}
{"smiles": "COc1ccc(-c2ccc(-c3n[nH]cc3/C=C3\\SC(=N)N(c4nccs4)C3=O)cc2)cc1", "EC50": 2.59}
{"smiles": "N=C1S/C(=C\\c2c[nH]nc2-c2ccc(-c3ccccc3)cc2)C(=O)N1c1nccs1", "EC50": 1.29}
{"smiles": "N=C1S/C(=C\\c2c[nH]nc2-c2cccc(F)c2)C(=O)N1c1nccs1", "Activity": "inactive"}
{"smiles": "COc1ccc(-c2n[nH]nc2/C=C2\\SC(=N)N(c3nccs3)C2=O)cc1", "Activity": "inactive"}
{"smiles": "N=C1S/C(=C\\c2n[nH]nc2-c2ccc(Cl)cc2)C(=O)N1c1nccs1", "Activity": "inactive"}
{"smiles": "N=C1S/C(=C\\c2c[nH]nc2-c2ccc(-c3ccc(Cl)cc3)cc2)C(=O)N1c1nccs1", "EC50": "> 100"}
{"smiles": "N=C1S/C(=C\\c2c[nH]nc2-c2ccc([N+](=O)[O-])cc2)C(=O)N1c1nccs1", "EC50": 23}
{"smiles": "N=C1S/C(=C\\c2c[nH]nc2-c2ccc(C(=O)N3CCOCC3)cc2)C(=O)N1c1nccs1", "EC50": 7.19}
{"smiles": "N=C1S/C(=C\\c2c[nH]nc2-c2ccc(F)cc2)C(=O)N1c1nncs1", "Activity": "inactive"}
{"smiles": "Cc1cnc(N2C(=N)S/C(=C\\c3c[nH]nc3-c3ccc(F)cc3)C2=O)s1", "EC50": 23.1}
{"smiles": "N=C1S/C(=C\\c2conc2-c2ccc(Cl)cc2)C(=O)N1c1nccs1", "Activity": "inactive"}
{"smiles": "N=C1S/C(=C\\c2c[nH]nc2-c2ccc(O)cc2)C(=O)N1c1nccs1", "EC50": 32.7}
{"smiles": "N=C1S/C(=C\\c2n[nH]nc2-c2ccc(F)cc2)C(=O)N1c1nccs1", "Activity": "inactive"}
{"smiles": "N=C1S/C(=C\\c2c[nH]nc2-c2ccc(-c3cccc(F)c3)cc2)C(=O)N1c1nccs1", "EC50": 48}
{"smiles": "N=C1S/C(=C\\c2cc(-c3ccccc3)[nH]c2-c2ccc(F)cc2)C(=O)N1c1nccs1", "Activity": "inactive"}
{"smiles": "N=C1S/C(=C\\c2c[nH]nc2-c2cccc(F)c2)C(=O)N1c1nncs1", "Activity": "inactive"}
{"smiles": "N=C1S/C(=C\\c2cc(CC(N)=O)[nH]c2-c2ccc(F)cc2)C(=O)N1c1nccs1", "Activity": "inactive"}
{"smiles": "COc1ccc(-c2n[nH]cc2/C=C2\\SC(=N)N(c3nccs3)C2=O)cc1", "EC50": 14.9}
{"smiles": "N=C1S/C(=C\\c2c[nH]nc2-c2ccc(-c3ccc(F)cc3)cc2)C(=O)N1c1nccs1", "EC50": 3.87}
{"smiles": "COc1ccccc1-c1ccc(-c2n[nH]cc2/C=C2\\SC(=N)N(c3nccs3)C2=O)cc1", "EC50": 2.41}
{"smiles": "N=C1S/C(=C\\c2c[nH]nc2-c2ccc(S(=O)(=O)c3ccccc3)cc2)C(=O)N1c1nccs1", "EC50": 1.78}
{"smiles": "N=C1S/C(=C\\c2c[nH]nc2-c2ccc(F)c(N3CCOCC3)c2)C(=O)N1c1nccs1", "EC50": 2.9}
{"smiles": "N=C1S/C(=C\\c2c[nH]nc2-c2ccc(C(=O)N3CCCCC3)cc2)C(=O)N1c1nccs1", "EC50": 2.09}
{"smiles": "Cc1ccc(-c2nocc2/C=C2\\SC(=N)N(c3nccs3)C2=O)cc1", "Activity": "inactive"}
{"smiles": "N=C1S/C(=C\\c2n[nH]nc2-c2ccccc2)C(=O)N1c1nccs1", "Activity": "inactive"}
{"smiles": "N=C1S/C(=C\\c2cc(Cc3ccccc3)[nH]c2-c2ccc(F)cc2)C(=O)N1c1nccs1", "Activity": "inactive"}
{"smiles": "N=C1S/C(=C\\c2c[nH]nc2-c2ccc(N3CCSCC3)cc2)C(=O)N1c1nccs1", "EC50": 3.3}
{"smiles": "N=C1S/C(=C\\c2c[nH]nc2-c2ccc(F)cc2)C(=O)N1c1nccs1", "EC50": 10.6}
{"smiles": "Cc1cc(/C=C2\\SC(=N)N(c3nccs3)C2=O)c(-c2ccc(F)cc2)[nH]1", "Activity": "inactive"}
{"smiles": "N=C1S/C(=C\\c2c[nH]nc2-c2ccc(Br)cc2)C(=O)N1c1nccs1", "EC50": 34.5}
